Data published in ChEMBL document CHEMBL6153128, “Insights into the Activation Mechanism of HCA1, HCA2, and HCA3” (J Med Chem, 2025).
Each block holds one compound with its values, some of them ahead of it. Active and inactive are the calls of the source. The calls are words filed in the database; no cut-off is given here.

Tests used:
[1] = biological target: T1, Hydroxycarboxylic acid receptor 1 (Homo sapiens, UniProt Q9BXC0); experiment: Agonist activity at HCA1 (unknown origin); assay type: functional, cell-based, HEK293
HEK293 [2] = experiment: Agonist activity at HCA3 (1 to 129 residues)/HCA2 (130-)(unknown origin) expressed in HEK293 cells incubated for 90 mins by IP1 accumulation assay; assay type: cell-based; conditions: Homo sapiens
HEK293 [3] = experiment: Agonist activity at HCA2 (1 to 129 residues)/HCA3 (130-)(unknown origin) expressed in HEK293 cells incubated for 90 mins by IP1 accumulation assay; assay type: cell-based; conditions: Homo sapiens
HEK293 [4] = experiment: Agonist activity at HCA3 (1 to 129 residues)/HCA2 (130-) Y86N/S91W mutant (unknown origin) expressed in HEK293 cells incubated for 90 mins by IP1 accumulation assay; assay type: cell-based; conditions: Homo sapiens, filed as agonist
HEK293 [5] = experiment: Agonist activity at HCA3 (1 to 129 residues)/HCA2 (130-) S178I mutant (unknown origin) expressed in HEK293 cells incubated for 90 mins by IP1 accumulation assay; assay type: cell-based; conditions: Homo sapiens, filed as agonist
HEK293 [6] = experiment: Agonist activity at HCA2 (1 to 129 residues)/HCA3 (130-) N86Y/W91S mutant (unknown origin) expressed in HEK293 cells incubated for 90 mins by IP1 accumulation assay; assay type: cell-based; conditions: Homo sapiens
[7] = system: Hydroxycarboxylic acid receptor 1 (Homo sapiens), Q9BXC0 [R71A]; experiment: Agonist activity at CRE-luc-fused HCA1 R71A mutant (unknown origin) expressed in HEK293 cells co-expressing XtremeGENE HP DNA assessed as inhibition of cAMP production preincubated for 30 mins followed by forskolin addition measured after 6 hrs by Bright-Glo Luciferase Assay; assay type: cell-based; conditions: time 6.5 hrs
[8] = system: Hydroxycarboxylic acid receptor 1 (Homo sapiens), Q9BXC0 [C88A]; experiment: Agonist activity at CRE-luc-fused HCA1 C88A mutant (unknown origin) expressed in HEK293 cells co-expressing XtremeGENE HP DNA assessed as inhibition of cAMP production preincubated for 30 mins followed by forskolin addition measured after 6 hrs by Bright-Glo Luciferase Assay; assay type: cell-based; conditions: time 6.5 hrs
[9] = system: Hydroxycarboxylic acid receptor 1 (Homo sapiens), Q9BXC0 [C7A]; experiment: Agonist activity at CRE-luc-fused HCA1 C7A mutant (unknown origin) expressed in HEK293 cells co-expressing XtremeGENE HP DNA assessed as inhibition of cAMP production preincubated for 30 mins followed by forskolin addition measured after 6 hrs by Bright-Glo Luciferase Assay; assay type: cell-based; conditions: time 6.5 hrs
[10] = system: Hydroxycarboxylic acid receptor 1 (Homo sapiens), Q9BXC0 [H261F]; experiment: Agonist activity at CRE-luc-fused HCA1 H261F mutant (unknown origin) expressed in HEK293 cells co-expressing XtremeGENE HP DNA assessed as inhibition of cAMP production preincubated for 30 mins followed by forskolin addition measured after 6 hrs by Bright-Glo Luciferase Assay; assay type: cell-based; conditions: time 6.5 hrs
[11] = system: Hydroxycarboxylic acid receptor 1 (Homo sapiens), Q9BXC0 [H261A]; experiment: Agonist activity at CRE-luc-fused HCA1 H261A mutant (unknown origin) expressed in HEK293 cells co-expressing XtremeGENE HP DNA assessed as inhibition of cAMP production preincubated for 30 mins followed by forskolin addition measured after 6 hrs by Bright-Glo Luciferase Assay; assay type: cell-based; conditions: time 6.5 hrs
[12] = system: Hydroxycarboxylic acid receptor 1 (Homo sapiens), Q9BXC0 [C6A]; experiment: Agonist activity at CRE-luc-fused HCA1 C6A mutant (unknown origin) expressed in HEK293 cells co-expressing XtremeGENE HP DNA assessed as inhibition of cAMP production preincubated for 30 mins followed by forskolin addition measured after 6 hrs by Bright-Glo Luciferase Assay; assay type: cell-based; conditions: time 6.5 hrs
[13] = system: Hydroxycarboxylic acid receptor 1 (Homo sapiens), Q9BXC0 [E166I]; experiment: Agonist activity at CRE-luc-fused HCA1 E166I mutant (unknown origin) expressed in HEK293 cells co-expressing XtremeGENE HP DNA assessed as inhibition of cAMP production preincubated for 30 mins followed by forskolin addition measured after 6 hrs by Bright-Glo Luciferase Assay; assay type: cell-based; conditions: time 6.5 hrs
[14] = system: Hydroxycarboxylic acid receptor 1 (Homo sapiens), Q9BXC0 [Y75A]; experiment: Agonist activity at CRE-luc-fused HCA1 Y75A mutant (unknown origin) expressed in HEK293 cells co-expressing XtremeGENE HP DNA assessed as inhibition of cAMP production preincubated for 30 mins followed by forskolin addition measured after 6 hrs by Bright-Glo Luciferase Assay; assay type: cell-based; conditions: time 6.5 hrs
[15] = system: Hydroxycarboxylic acid receptor 1 (Homo sapiens), Q9BXC0 [R99A]; experiment: Agonist activity at CRE-luc-fused HCA1 R99A mutant (unknown origin) expressed in HEK293 cells co-expressing XtremeGENE HP DNA assessed as inhibition of cAMP production preincubated for 30 mins followed by forskolin addition measured after 6 hrs by Bright-Glo Luciferase Assay; assay type: cell-based; conditions: time 6.5 hrs
[16] = system: Hydroxycarboxylic acid receptor 1 (Homo sapiens), Q9BXC0 [R240A]; experiment: Agonist activity at CRE-luc-fused HCA1 R240A mutant (unknown origin) expressed in HEK293 cells co-expressing XtremeGENE HP DNA assessed as inhibition of cAMP production preincubated for 30 mins followed by forskolin addition measured after 6 hrs by Bright-Glo Luciferase Assay; assay type: cell-based; conditions: time 6.5 hrs
[17] = system: Hydroxycarboxylic acid receptor 1 (Homo sapiens), Q9BXC0 [E166A]; experiment: Agonist activity at CRE-luc-fused HCA1 E166A mutant (unknown origin) expressed in HEK293 cells co-expressing XtremeGENE HP DNA assessed as inhibition of cAMP production preincubated for 30 mins followed by forskolin addition measured after 6 hrs by Bright-Glo Luciferase Assay; assay type: cell-based; conditions: time 6.5 hrs
[18] = system: Hydroxycarboxylic acid receptor 1 (Homo sapiens), Q9BXC0 [Y74A]; experiment: Agonist activity at CRE-luc-fused HCA1 Y74A mutant (unknown origin) expressed in HEK293 cells co-expressing XtremeGENE HP DNA assessed as inhibition of cAMP production preincubated for 30 mins followed by forskolin addition measured after 6 hrs by Bright-Glo Luciferase Assay; assay type: cell-based; conditions: time 6.5 hrs
[19] = system: Hydroxycarboxylic acid receptor 1 (Homo sapiens), Q9BXC0 [Y268A]; experiment: Agonist activity at CRE-luc-fused HCA1 Y268A mutant (unknown origin) expressed in HEK293 cells co-expressing XtremeGENE HP DNA assessed as inhibition of cAMP production preincubated for 30 mins followed by forskolin addition measured after 6 hrs by Bright-Glo Luciferase Assay; assay type: cell-based; conditions: time 6.5 hrs
[20] = biological target: T1, Hydroxycarboxylic acid receptor 1; experiment: Agonist activity at CRE-luc-fused HCA1 (unknown origin) expressed in HEK293 cells co-expressing XtremeGENE HP DNA assessed as inhibition of cAMP production preincubated for 30 mins followed by forskolin addition measured after 6 hrs by Bright-Glo Luciferase Assay; assay type: functional, cell-based; conditions: filed as agonist, time 6.5 hrs

T1 sequence (Q9BXC0 whole entry, the tested form may be a part): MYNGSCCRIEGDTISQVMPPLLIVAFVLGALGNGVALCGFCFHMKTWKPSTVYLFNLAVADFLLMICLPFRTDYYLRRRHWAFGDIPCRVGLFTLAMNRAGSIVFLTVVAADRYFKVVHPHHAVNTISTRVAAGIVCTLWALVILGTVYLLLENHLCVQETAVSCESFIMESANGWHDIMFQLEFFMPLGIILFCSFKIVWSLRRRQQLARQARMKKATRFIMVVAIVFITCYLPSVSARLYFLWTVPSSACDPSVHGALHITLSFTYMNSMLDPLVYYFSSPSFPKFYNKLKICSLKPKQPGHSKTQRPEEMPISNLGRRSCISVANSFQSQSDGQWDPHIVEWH
Sequence of Hydroxycarboxylic acid receptor 1 (Homo sapiens), Q9BXC0 [R71A] (Q9BXC0 whole entry R71A, the tested form may be a part): as the sequence (Q9BXC0 whole entry, the tested form may be a part) above, with R71A counted along it
Sequence of Hydroxycarboxylic acid receptor 1 (Homo sapiens), Q9BXC0 [H261F] (Q9BXC0 whole entry H261F, the tested form may be a part): as the sequence (Q9BXC0 whole entry, the tested form may be a part) above, with H261F counted along it
Sequence of Hydroxycarboxylic acid receptor 1 (Homo sapiens), Q9BXC0 [R240A] (Q9BXC0 whole entry R240A, the tested form may be a part): as the sequence (Q9BXC0 whole entry, the tested form may be a part) above, with R240A counted along it
Sequence of Hydroxycarboxylic acid receptor 1 (Homo sapiens), Q9BXC0 [E166A] (Q9BXC0 whole entry E166A, the tested form may be a part): as the sequence (Q9BXC0 whole entry, the tested form may be a part) above, with E166A counted along it
Sequence of Hydroxycarboxylic acid receptor 1 (Homo sapiens), Q9BXC0 [Y268A] (Q9BXC0 whole entry Y268A, the tested form may be a part): as the sequence (Q9BXC0 whole entry, the tested form may be a part) above, with Y268A counted along it
Sequence of Hydroxycarboxylic acid receptor 1 (Homo sapiens), Q9BXC0 [E166I] (Q9BXC0 whole entry E166I, the tested form may be a part): as the sequence (Q9BXC0 whole entry, the tested form may be a part) above, with E166I counted along it
Sequence of Hydroxycarboxylic acid receptor 1 (Homo sapiens), Q9BXC0 [Y74A] (Q9BXC0 whole entry Y74A, the tested form may be a part): as the sequence (Q9BXC0 whole entry, the tested form may be a part) above, with Y74A counted along it
Sequence of Hydroxycarboxylic acid receptor 1 (Homo sapiens), Q9BXC0 [C6A] (Q9BXC0 whole entry C6A, the tested form may be a part): as the sequence (Q9BXC0 whole entry, the tested form may be a part) above, with C6A counted along it
Sequence of Hydroxycarboxylic acid receptor 1 (Homo sapiens), Q9BXC0 [H261A] (Q9BXC0 whole entry H261A, the tested form may be a part): as the sequence (Q9BXC0 whole entry, the tested form may be a part) above, with H261A counted along it
Sequence of Hydroxycarboxylic acid receptor 1 (Homo sapiens), Q9BXC0 [Y75A] (Q9BXC0 whole entry Y75A, the tested form may be a part): as the sequence (Q9BXC0 whole entry, the tested form may be a part) above, with Y75A counted along it
Sequence of Hydroxycarboxylic acid receptor 1 (Homo sapiens), Q9BXC0 [C88A] (Q9BXC0 whole entry C88A, the tested form may be a part): as the sequence (Q9BXC0 whole entry, the tested form may be a part) above, with C88A counted along it
Sequence of Hydroxycarboxylic acid receptor 1 (Homo sapiens), Q9BXC0 [R99A] (Q9BXC0 whole entry R79A, the tested form may be a part): as the sequence (Q9BXC0 whole entry, the tested form may be a part) above, with R79A counted along it
Sequence of Hydroxycarboxylic acid receptor 1 (Homo sapiens), Q9BXC0 [C7A] (Q9BXC0 whole entry C7A, the tested form may be a part): as the sequence (Q9BXC0 whole entry, the tested form may be a part) above, with C7A counted along it

SMILES: O=C(O)c1cc(O)cc(Cl)c1
- EC50 [1]: ~16 µM

SMILES: CC1CCC(C(=O)Nc2nc(-c3cccs3)c(CC(=O)N3CCN(C)CC3)s2)CC1 (stereo not given)
- EC50 [1]: ~0.05 µM

SMILES: CC(C)(Cc1nc(-c2ccc(O)cn2)no1)C(=O)NC1=C(C(=O)O)CCCC1
- Activity (HEK293 [2]): inactive
- Activity (HEK293 [3]): inactive
- Activity (HEK293 [4]): Active

SMILES: CCCCCC(O)CC(=O)O (stereo not given)
- Activity (HEK293 [5]): Active
- Activity (HEK293 [3]): inactive
- Activity (HEK293 [6]): inactive

- Activity [7]: inactive
- Activity [8]: inactive
- Activity [9]: inactive
- Activity [10]: inactive
- Activity [11]: inactive
- EC50 [1]: ~150 µM
- Activity [12]: inactive
- Activity [13]: inactive
- Activity [14]: inactive
- Activity [15]: inactive
- Activity [16]: inactive
- Activity [17]: inactive
- Activity [18]: inactive
- Activity [19]: inactive
- Activity [20]: Active
SMILES: O=C(O)c1cc(O)cc(O)c1 [3,5-DIHYDROXYBENZOIC ACID]

- EC50 [1]: ~184 µM
SMILES: O=C(O)c1cccc(O)c1 [3-HYDROXYBENZOIC ACID]

- EC50 [1]: 1000 µM
SMILES: CC(O)C(=O)O (stereo not given) [LACTIC ACID]
